Measured values from US20230077362A1 (CORTEVA AGRISCIENCE LLC, priority 2019, published 2023).
Read-outs that look alike come from different tables or passages of the source.

Legend:
[1] = tested on: Beet Armyworm (Spodoptera exigua) ("BAW"), second instar larvae; experiment: Bioassay on beet armyworm (BAW), 128-well diet tray assay; type: in vivo; settings: for pest or weed control at 50 µg/cm2: Spodoptera exigua; for BAW rating (% control or mortality class): 128-well diet tray assay, second instar larvae
In short: (§1)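 Mortality (%) is scored well by well after five to seven days at 25° C. on a 14:10 light:dark regime. The value given is the mean of eight wells.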

[2] = tested on: Cabbage Looper (Trichoplusia ni) ("CL"), second instar larvae; experiment: Bioassay on cabbage looper (CL), 128-well diet tray assay; type: in vivo; settings: for pest or weed control at 50 µg/cm2 / mortality at 50 µg/cm2: Trichoplusia ni; for mortality at 50 µg/cm2: 128-well diet tray assay, second instar larvae, read-out: CL rating (% control or mortality class)
In short: as §1

[3] = read-out: BAW (Biological Results, rating)
[4] = read-out: CL (Biological Results, rating)

SMILES	pest or weed control at 50 µg/cm2 [1, 3]	pest or weed control at 50 µg/cm2 [2, 4]	other results
COCOc1cc(-c2ncn(-c3ccc(OC(F)(F)F)cc3)n2)ccc1NC(=O)/N=C1\SCC(=O)N1c1cc(C)ccc1C(C)C [Compound J170, (Z)-1-(3-(2-Isopropyl-5-methylphenyl)-4-oxothiazolidin-2-ylidene)-3-(2-(methoxymethoxy)-4-(1-(4-(trifluoromethoxy)phenyl)-1H-1,2,4-triazol-3-yl)phenyl)urea]	50 to 100%	50 to 100%	
Cc1ccc(COCCF)c(N2C(=O)CS/C2=N\C(=O)Nc2ccc(-c3ncn(-c4ccc(OC(F)(F)F)cc4)n3)cc2F)c1 [Compound J551]			BAW rating ([1]; Table ABC, species BAW, C = not tested, D = no activity noticed): A (50-100); CL rating ([2]; Table ABC, species CL, C = not tested, D = no activity noticed): A (50-100)
Cc1ccc(COCC(F)F)c(N2C(=O)CS/C2=N\C(=O)Nc2ccc(-n3cnc(-c4ccc(C(F)(F)F)cc4)n3)cc2F)c1 [Compound J701, (Z)-1-(3-(2-((2,2-Difluoroethoxy)methyl)-5-methylphenyl)-4-oxothiazolidin-2-ylidene)-3-(2-fluoro-4-(3-(4-(trifluoromethyl)phenyl)-1H-1,2,4-triazol-1-yl)phenyl)urea]			pest or weed control at 50 µg/cm2 ([1]; read-out: BAW rating): 50 to 100%; pest or weed control at 50 µg/cm2 ([2]; read-out: CL rating): 50 to 100%
CC(C)c1ccc(N(C)C)cc1N1C(=O)CS/C1=N\C(=O)Nc1ccc(-c2nnc(-c3ccc(OC(F)(F)F)cc3)s2)cc1F [Compound J506, (Z)-1-(3-(5-(Dimethylamino)-2-isopropylphenyl)-4-oxothiazolidin-2-ylidene)-3-(2-fluoro-4-(5-(4-(trifluoromethoxy)phenyl)-1,3,4-thiadiazol-2-yl)phenyl)urea]			pest or weed control at 50 µg/cm2 ([1]; read-out: BAW rating): 50 to 100%; pest or weed control at 50 µg/cm2 ([2]; read-out: CL rating): 50 to 100%
Cc1ccc(OCCCC(F)(F)F)c(N2C(=O)CS/C2=N\C(=O)Nc2c(F)cc(-c3ncn(-c4ccc(OC(F)(F)F)cc4)n3)cc2F)c1 [Compound J80, (Z)-1-(2,6-Difluoro-4-(1-(4-(trifluoromethoxy)phenyl)-1H-1,2,4-triazol-3-yl)phenyl)-3-(3-(5-methyl-2-(4,4,4-trifluorobutoxy)phenyl)-4-oxothiazolidin-2-ylidene)urea]	50 to 100%	50 to 100%	
Cc1ccc(COCC(F)(F)F)c(N2C(=O)CS/C2=N\C(=O)Nc2ccc(-c3ncn(-c4ccc(OC(F)(F)F)cn4)n3)cc2C#N)c1 [Compound J265, (Z)-1-(2-Cyano-4-(1-(5-(trifluoromethoxy)pyridin-2-yl)-1H-1,2,4-triazol-3-yl)phenyl)-3-(3-(5-methyl-2-((2,2,2-trifluoroethoxy)methyl)phenyl)-4-oxothiazolidin-2-ylidene)urea]	50 to 100%	50 to 100%	
Cc1ccc(OCC(F)(F)F)c(N2C(=O)CS/C2=N\C(=O)Nc2c(F)cc(-c3ncn(-c4ccc(OC(F)(F)F)cc4)n3)cc2F)c1 [Compound J79, (Z)-1-(2,6-Difluoro-4-(1-(4-(trifluoromethoxy)phenyl)-1H-1,2,4-triazol-3-yl)phenyl)-3-(3-(5-methyl-2-(2,2,2-trifluoroethoxy)phenyl)-4-oxothiazolidin-2-ylidene)urea]	50 to 100%	50 to 100%	
CCOC(C)c1ccc(C)cc1N1C(=O)CS/C1=N\C(=O)Nc1ccc(-c2ncn(-c3ccc(OC(F)(F)F)cc3)n2)cc1O (stereo not drawn) [Compound J179, (Z)-1-(3-(2-(1-Ethoxyethyl)-5-methylphenyl)-4-oxothiazolidin-2-ylidene)-3-(2-hydroxy-4-(1-(4-(trifluoromethoxy)phenyl)-1H-1,2,4-triazol-3-yl)phenyl)urea]	50 to 100%	50 to 100%	
COC(c1ccc(C)cc1N1C(=O)CS/C1=N\C(=O)Nc1ccc(-n2cnc(-c3ccc(OC(F)(F)F)cc3)c2)cc1Cl)C(F)(F)F (stereo not drawn) [Compound J791, (Z)-1-(2-Chloro-4-(4-(4-(trifluoromethoxy)phenyl)-1H-imidazol-1-yl)phenyl)-3-(3-(5-methyl-2-(2,2,2-trifluoro-1-methoxyethyl)phenyl)-4-oxothiazolidin-2-ylidene)urea]			BAW rating (% control or mortality class) ([1]; Table ABC, species BAW): A (50-100); mortality at 50 µg/cm2 ([2]; Table ABC, species CL): 50 to 100%
Cc1ccc(COCC(F)(F)F)c(N2C(=O)CS/C2=N\C(=O)Nc2ccc(-c3ncn(-c4ccc(SC(F)(F)F)cc4)n3)cc2C)c1 [Compound J204, (Z)-1-(3-(5-Methyl-2-((2,2,2-trifluoroethoxy)methyl)phenyl)-4-oxothiazolidin-2-ylidene)-3-(2-methyl-4-(1-(4-((trifluoromethyl)thio)phenyl)-1H-1,2,4-triazol-3-yl)phenyl)urea]	50 to 100%	50 to 100%	
Cc1ccc(COCC(F)(F)F)c(N2C(=O)CS/C2=N\C(=O)Nc2ccc(-c3n[nH]c(-c4ccccc4)n3)cc2)c1 [Compound J802, (Z)-1-(3-(5-Methyl-2-((2,2,2-trifluoroethoxy)methyl)phenyl)-4-oxothiazolidin-2-ylidene)-3-(4-(5-phenyl-1H-1,2,4-triazol-3-yl)phenyl)urea]			BAW rating (% control or mortality class) ([1]; Table ABC, species BAW): A (50-100); mortality at 50 µg/cm2 ([2]; Table ABC, species CL): 50 to 100%
CCOCc1ccc(C)cc1N1C(=O)CS/C1=N\C(=O)Nc1ccc(-c2ncn(-c3ccc(OC(F)(F)F)cc3)n2)cc1Br [Compound J221, (Z)-1-(2-Bromo-4-(1-(4-(trifluoromethoxy)phenyl)-1H-1,2,4-triazol-3-yl)phenyl)-3-(3-(2-(ethoxymethyl)-5-methylphenyl)-4-oxothiazolidin-2-ylidene)urea]	50 to 100%	50 to 100%	
Cc1ccc(C(C)C)c(N2C(=O)CS/C2=N\C(=O)Nc2ccc(-c3nnc(-c4ccc(OC(F)(F)F)cc4)o3)cc2F)c1 [Compound J607, (Z)-1-(2-fluoro-4-(5-(4-(trifluoromethoxy)phenyl)-1,3,4-oxadiazol-2-yl)phenyl)-3-(3-(2-isopropyl-5-methylphenyl)-4-oxothiazolidin-2-ylidene)urea]			pest or weed control at 50 µg/cm2 ([1]; read-out: BAW rating): 50 to 100%; pest or weed control at 50 µg/cm2 ([2]; read-out: CL rating): 50 to 100%
CCOCc1ccc(C)cc1N1C(=O)CS/C1=N\C(=O)Nc1ccc(-c2ncn(-c3cc(C(F)(F)F)cc(C(F)(F)F)c3)n2)cc1C [Compound J763, (Z)-1-(4-(1-(3,5-Bis(trifluoromethyl)phenyl)-1H-1,2,4-triazol-3-yl)-2-methylphenyl)-3-(3-(2-(ethoxymethyl)-5-methylphenyl)-4-oxothiazolidin-2-ylidene)urea]			pest or weed control at 50 µg/cm2 ([1]; read-out: BAW rating): 50 to 100%; pest or weed control at 50 µg/cm2 ([2]; read-out: CL rating): 50 to 100%
CCOCc1ccc(C)cc1N1C(=O)CS/C1=N\C(=O)Nc1ccc(-c2ncn(-c3ccc(SC(F)(F)F)cc3)n2)cc1C [Compound J205, (Z)-1-(3-(2-(Ethoxymethyl)-5-methylphenyl)-4-oxothiazolidin-2-ylidene)-3-(2-methyl-4-(1-(4-((trifluoromethyl)thio)phenyl)-1H-1,2,4-triazol-3-yl)phenyl)urea]	50 to 100%	50 to 100%	
Cc1cc(-c2ncn(-c3ccc(OC(F)(F)F)cc3)n2)ccc1NC(=O)/N=C1\SCC(=O)N1c1cc(N(C)C)ccc1C(C)C [Compound J68, (Z)-1-(3-(5-(Dimethylamino)-2-isopropylphenyl)-4-oxothiazolidin-2-ylidene)-3-(2-methyl-4-(1-(4-(trifluoromethoxy)phenyl)-1H-1,2,4-triazol-3-yl)phenyl)urea]	50 to 100%	50 to 100%	
CC(C)c1cc(F)c(N(C)C)cc1N1C(=O)CS/C1=N\C(=O)Nc1ccc(-c2ncn(-c3ccc(OC(F)(F)F)cc3)n2)cc1F [Compound J162, (Z)-1-(3-(5-(Dimethylamino)-4-fluoro-2-isopropylphenyl)-4-oxothiazolidin-2-ylidene)-3-(2-fluoro-4-(1-(4-(trifluoromethoxy)phenyl)-1H-1,2,4-triazol-3-yl)phenyl)urea]	50 to 100%	50 to 100%	
COCc1ccc(C)cc1N1C(=O)CS/C1=N\C(=O)Nc1ccc(-c2ncn(-c3ccc(C(F)(F)F)cn3)n2)cc1F [Compound J298, (Z)-1-(2-Fluoro-4-(1-(5-(trifluoromethyl)pyridin-2-yl)-1H-1,2,4-triazol-3-yl)phenyl)-3-(3-(2-(methoxymethyl)-5-methylphenyl)-4-oxothiazolidin-2-ylidene)urea]	50 to 100%	50 to 100%	
CN(C)c1ccc(OCCC(F)(F)F)c(N2C(=O)CS/C2=N\C(=O)Nc2ccc(-c3ncn(-c4ccc(OC(F)(F)F)cc4)n3)cc2C(F)(F)F)c1 [Compound J118, (Z)-1-(3-(5-(Dimethylamino)-2-(3,3,3-trifluoropropoxy)phenyl)-4-oxothiazolidin-2-ylidene)-3-(4-(1-(4-(trifluoromethoxy)phenyl)-1H-1,2,4-triazol-3-yl)-2-(trifluoromethyl)phenyl)urea]	50 to 100%	50 to 100%	
CCOCc1ccc(C)cc1N1C(=O)CS/C1=N\C(=O)Nc1ccc(-c2cn(-c3ccc(S(F)(F)(F)(F)F)cc3)cn2)cc1C [Compound J615, (Z)-1-(3-(2-(Ethoxymethyl)-5-methylphenyl)-4-oxothiazolidin-2-ylidene)-3-(2-methyl-4-(1-(4-(pentafluoro-λ^6-sulfaneyl)phenyl)-1H-imidazol-4-yl)phenyl)urea]			pest or weed control at 50 µg/cm2 ([1]; read-out: BAW rating): 50 to 100%; pest or weed control at 50 µg/cm2 ([2]; read-out: CL rating): 50 to 100%
CCCOc1ccc(C)cc1N1C(=O)CS/C1=N\C(=O)Nc1ccc(-c2ncn(-c3ccc(S(F)(F)(F)(F)F)cc3)n2)cc1F [Compound J541]			pest or weed control at 50 µg/cm2 ([1]; read-out: BAW rating): 50 to 100%; pest or weed control at 50 µg/cm2 ([2]; read-out: CL rating): 50 to 100%
